From patent publication US8664220B2, “Polycyclic compounds as lysophosphatidic acid receptor antagonists” (Amira Pharmaceuticals, Inc., priority 2009, dated 2014)

Each compound was assayed against T1, human LPA1 (Homo sapiens, UniProt Q92633) (assay: LPA1 calcium flux assay). Conditions: human LPA1 expressing CHO cells, stimulated with 10 nM LPA; read-out: HLPA1 Ca Flux IC50.
T1 construct: the full-length cDNA for human LPA1 was obtained by PCR of the reverse transcription reaction; expressed in transfected cells
T1 sequence (Q92633 whole entry): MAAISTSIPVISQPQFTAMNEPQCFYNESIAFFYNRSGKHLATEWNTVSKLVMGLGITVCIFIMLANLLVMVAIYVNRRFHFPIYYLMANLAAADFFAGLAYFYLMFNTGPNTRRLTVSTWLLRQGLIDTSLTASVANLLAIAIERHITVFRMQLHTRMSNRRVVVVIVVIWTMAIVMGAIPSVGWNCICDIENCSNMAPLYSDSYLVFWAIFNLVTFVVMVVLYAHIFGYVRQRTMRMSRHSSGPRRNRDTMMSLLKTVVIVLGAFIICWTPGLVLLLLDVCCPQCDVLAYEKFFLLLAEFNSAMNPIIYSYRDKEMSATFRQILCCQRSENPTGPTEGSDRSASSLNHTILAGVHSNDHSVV
Type: cell-based
Summary of the method: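 CHO cells stably expressing human LPA1, serum-starved overnight and loaded with Calcium 4 dye in HBSS/20 mM Hepes/0.3% fatty-acid-free HSA, 1 h at 37 °C. Compounds pre-incubated 30 min at room temperature, then 10 nM LPA added; intracellular Ca2+ flux measured and IC50 from titration curves.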

| IC50 [nM] | SMILES |
| --- | --- |
| < 300 | Cc1noc(-c2ccc(-c3ccc(C4(C(=O)O)CC4)cc3)cc2)c1Nc1cncc(-c2ccccc2)n1 [Compound 1-78, 1-{4′-[3-Methyl-4-(6-phenyl-pyrazin-2-ylamino)-isoxazol-5-yl]-biphenyl-4-yl}-cyclopropanecarboxylic acid] |
| < 300 | Cc1noc(-c2ccc(-c3ccc(C4(C(=O)O)CC4)cc3)cc2)c1C(O)c1cn(Cc2ccccc2)nn1 (single isomer, unassigned) [Compound 1-40, 1-(4′-{4-[(1-Benzyl-1H-[1,2,3]triazol-4-yl)-hydroxy-methyl]-3-methyl-isoxazol-5-yl}-biphenyl-4-yl)-cyclopropanecarboxylic acid] |
| < 300 | Cc1noc(-c2ccc(-c3ccc(C4(C(=O)O)CC4)cc3)cc2)c1Nc1cccc(-c2ccccc2)n1 [Compound 1-68, 1-{4′-[3-Methyl-4-(6-phenyl-pyridin-2-ylamino)-isoxazol-5-yl]-biphenyl-4-yl}-cyclopropanecarboxylic acid] |
| 300 to 1000 | Cc1noc(-c2ccc(-c3ccc(C4(C(=O)O)CC4)cc3)cc2)c1Nc1cccc(C#CC2CCCC2)n1 [Compound 1-135, 1-{4′-[4-(6-Cyclopentylethynyl-pyridin-2-ylamino)-3-methyl-isoxazol-5-yl]-biphenyl-4-yl}-cyclopropanecarboxylic acid] |
| 300 to 1000 | Cc1noc(-c2ccc(-c3ccc(C4(C(=O)O)CC4)cc3)cc2)c1Nc1cccc(N(C)c2ccccc2)n1 [Compound 1-105, 1-(4′-{3-Methyl-4-[6-(methyl-phenyl-amino)-pyridin-2-ylamino]-isoxazol-5-yl}-biphenyl-4-yl)-cyclopropanecarboxylic acid] |
| > 50000 | Cc1noc(-c2ccc(-c3ccc(C4(C(=O)O)CC4)cc3)cc2)c1CN1C(=O)OC[C@@H]1Cc1ccccc1 [Compound 1-12, 1-{4′-[4-((S)-4-Benzyl-2-oxo-oxazolidin-3-ylmethyl)-3-methyl-isoxazol-5-yl]-biphenyl-4-yl}-cyclopropanecarboxylic acid] |
| 1000 to 50000 | Cc1noc(-c2ccc(-c3ccc(CCC(=O)O)cc3)cc2)c1C(O)c1cn(Cc2cccc(C(F)(F)F)c2)nn1 (stereo not drawn) [Compound 1-52, 3-[4′-(4-{Hydroxy-[1-(3-trifluoromethyl-benzyl)-1H-[1,2,3]triazol-4-yl]-methyl}-3-methyl-isoxazol-5-yl)-biphenyl-4-yl]propionic acid] |
| < 300 | Cc1noc(-c2ccc(-c3ccc(C4(C(=O)O)CC4)cc3)cc2)c1Nc1cncc(-c2cc(F)ccc2F)c1 [Compound 1-161, 1-(4′-{4-[5-(2,5-Difluoro-phenyl)-pyridin-3-ylamino]-3-methyl-isoxazol-5-yl}-biphenyl-4-yl)-cyclopropanecarboxylic acid] |
| < 300 | Cc1noc(-c2ccc(-c3ccc(C4(C(=O)NS(C)(=O)=O)CC4)cc3)cc2)c1Nc1nnc(-c2ccccc2)o1 [Compound 3-4, N-(1-{4′-[3-Methyl-4-(5-phenyl-[1,3,4]oxadiazol-2-ylamino)-isoxazol-5-yl]-biphenyl-4-yl}-cyclopropanecarbonyl)-methanesulfonamide] |
| < 300 | Cc1noc(-c2ccc(-c3ccc(C4(C(=O)O)CC4)cc3)cc2)c1Cn1cc(-c2ccccc2)cn1 [Compound 1-23, 1-{4′-[3-Methyl-4-(4-phenyl-pyrazol-1-ylmethyl)-isoxazol-5-yl]-biphenyl-4-yl}-cyclopropanecarboxylic acid] |
| < 300 | Cc1noc(-c2ccc(-c3ccc(C4(C(=O)O)CC4)cc3)cc2)c1Nc1cccc(-c2cccc(Cl)c2Cl)n1 [Compound 1-158, 1-(4′-{4-[6-(2,3-Dichloro-phenyl)-pyridin-2-ylamino]-3-methyl-isoxazol-5-yl}-biphenyl-4-yl)-cyclopropanecarboxylic acid] |
| < 300 | Cc1noc(-c2ccc(-c3ccc(C4(C(=O)O)CCC4)cc3)cc2)c1Nc1cccc(-c2ccccc2)n1 [Compound 1-122, 1-{4′-[3-Methyl-4-(6-phenyl-pyridin-2-ylamino)-isoxazol-5-yl]-biphenyl-4-yl}-cyclobutanecarboxylic acid] |
| < 300 | COc1ccc(F)cc1-c1cccc(Nc2c(C)noc2-c2ccc(-c3ccc(C4(C(=O)O)CC4)cc3)cc2)n1 [Compound 1-146, 1-(4′-{4-[6-(5-Fluoro-2-methoxy-phenyl)-pyridin-2-ylamino]-3-methyl-isoxazol-5-yl}-biphenyl-4-yl)-cyclopropanecarboxylic acid] |
| < 300 | COc1ccc(-c2cccc(Nc3c(C)noc3-c3ccc(-c4ccc(C5(C(=O)O)CC5)cc4)cc3)n2)cc1 [Compound 1-92, 1-(4′-{4-[6-(4-Methoxy-phenyl)-pyridin-2-ylamino]-3-methyl-isoxazol-5-yl}-biphenyl-4-yl)-cyclopropanecarboxylic acid] |
| < 300 | Cc1noc(-c2ccc(-c3ccc(C4(CC(=O)O)CC4)cc3)cc2)c1Nc1cccc(-c2ccccc2)n1 [Compound 1-134, (1-{4′-[3-Methyl-4-(6-phenyl-pyridin-2-ylamino)-isoxazol-5-yl]-biphenyl-4-yl}-cyclopropyl)-acetic acid] |
| 300 to 1000 | Cc1noc(-c2ccc(-c3ccc(C4(C(=O)O)CC4)cc3)cc2)c1C1CC1C(=O)N(C)[C@H](C)c1ccccc1 (single isomer, unassigned) [Compound 1-27] |
| < 300 | Cc1noc(-c2ccc(-c3ccc(C4(C(=O)O)CC4)cc3)cc2)c1Nc1cccc(-c2cc(F)ccc2Cl)n1 [Compound 1-151, 1-(4′-{4-[6-(2-Chloro-5-fluoro-phenyl)-pyridin-2-ylamino]-3-methyl-isoxazol-5-yl}-biphenyl-4-yl)-cyclopropanecarboxylic acid] |
| < 300 | Cc1noc(-c2ccc(-c3ccc(C4(C(=O)O)CC4)cc3)cc2)c1[C@@H](O)c1cn([C@H](C)c2ccccc2)nn1 [Compound 1-67, 1-[4′-(4-{(R)-Hydroxy-[1-((R)-1-phenyl-ethyl)-1H-[1,2,3]triazol-4-yl]-methyl}-3-methyl-isoxazol-5-yl)-biphenyl-4-yl]-cyclopropanecarboxylic acid] |
| 1000 to 50000 | Cc1noc(-c2ccc(-c3ccc(C4(C(=O)O)CC4)cc3)cc2)c1C(=O)N1CCN(S(=O)(=O)c2ccc(Cl)c(Cl)c2)CC1 [Compound 1-3, 1-(4′-{4-[4-(3,4-Dichloro-benzenesulfonyl)-piperazine-1-carbonyl]-3-methyl-isoxazol-5-yl}-biphenyl-4-yl)-cyclopropanecarboxylic acid] |
| 1000 to 50000 | Cc1noc(-c2ccc(-c3ccc(C4(C(=O)O)CC4)cc3)cc2)c1N(c1cccc(Cc2ccccc2)n1)c1cccc(Cc2ccccc2)n1 [Compound 1-120, 1-(4′-{4-[Bis-(6-benzyl-pyridin-2-yl)-amino]-3-methyl-isoxazol-5-yl}-biphenyl-4-yl)-cyclopropanecarboxylic acid] |
| < 300 | Cc1noc(-c2ccc(-c3ccc(CCC(=O)O)cc3)cc2)c1Nc1cccc(-c2ccccc2)n1 [Compound 1-132, 3-{4′-[3-Methyl-4-(6-phenyl-pyridin-2-ylamino)-isoxazol-5-yl]-biphenyl-4-yl}-propionic acid] |
| < 300 | Cc1noc(-c2ccc(-c3ccc(C4(C(=O)O)CC4)cc3)cc2)c1Nc1cccc(-c2c(Cl)cccc2Cl)n1 [Compound 1-150, 1-(4′-{4-[6-(2,6-Dichloro-phenyl)-pyridin-2-ylamino]-3-methyl-isoxazol-5-yl}-biphenyl-4-yl)-cyclopropanecarboxylic acid] |
| < 300 | Cc1noc(-c2ccc(-c3ccc(C4(C(=O)O)CC4)cc3)cc2)c1Nc1cc(-c2ccccc2)ccn1 [Compound 1-116, 1-{4′-[3-Methyl-4-(4-phenyl-pyridin-2-ylamino)-isoxazol-5-yl]-biphenyl-4-yl}-cyclopropanecarboxylic acid] |
| < 300 | COc1cncc(-c2cccc(Nc3c(C)noc3-c3ccc(-c4ccc(C5(C(=O)O)CC5)cc4)cc3)c2)c1 [Compound 1-104, 1-(4′-{4-[3-(5-Methoxy-pyridin-3-yl)-phenylamino]-3-methyl-isoxazol-5-yl}-biphenyl-4-yl)-cyclopropanecarboxylic acid] |
| 300 to 1000 | Cc1noc(-c2ccc(-c3ccc(C4(C(=O)O)CC4)cc3)cc2)c1CN1C(=O)O[C@@H](c2ccccc2)[C@H]1C [Compound 1-15, 1-{4′-[3-Methyl-4-((4R,5S)-4-methyl-2-oxo-5-phenyl-oxazolidin-3-ylmethyl)-isoxazol-5-yl]-biphenyl-4-yl}-cyclopropanecarboxylic acid] |
| < 300 | CCc1noc(-c2ccc(-c3ccc(C4(C(=O)O)CC4)cc3)cc2)c1Nc1cccc(-c2ccccc2)n1 [Compound 2-1, 1-{4′-[3-Ethyl-4-(6-phenyl-pyridin-2-ylamino)-isoxazol-5-yl]-biphenyl-4-yl}-cyclopropanecarboxylic acid] |
| < 300 | Cc1noc(-c2ccc(-c3ccc(C4(C(=O)O)CC4)cc3)cc2)c1Nc1cccc(-c2ccccc2)c1 [Compound 1-74, 1-{4′-[4-(Biphenyl-3-ylamino)-3-methyl-isoxazol-5-yl]-biphenyl-4-yl}-cyclopropanecarboxylic acid] |
| < 300 | Cc1noc(-c2ccc(-c3ccc(C4(C(=O)O)CC4)cc3)cc2)c1Nc1cccc(Cc2ccc(F)cc2)n1 [Compound 1-86, 1-(4′-{4-[6-(4-Fluoro-benzyl)-pyridin-2-ylamino]-3-methyl-isoxazol-5-yl}-biphenyl-4-yl)-cyclopropanecarboxylic acid] |
| < 300 | Cc1noc(-c2ccc(-c3ccc(C4(C(=O)O)CC4)cc3)cc2)c1Nc1cncc(-c2ccccc2Cl)c1 [Compound 1-113, 1-(4′-{4-[5-(2-Chloro-phenyl)-pyridin-3-ylamino]-3-methyl-isoxazol-5-yl}-biphenyl-4-yl)-cyclopropanecarboxylic acid] |
| < 300 | Cc1noc(-c2ccc(-c3ccc(C4(C(=O)O)CC4)cc3)cc2)c1CN1CCC(c2ccccc2)C1 (stereo not drawn) [Compound 1-17, 1-{4′-[3-Methyl-4-(3-phenyl-pyrrolidin-1-ylmethyl)-isoxazol-5-yl]-biphenyl-4-yl}-cyclopropanecarboxylic acid] |
